34 molecules from patent US11292781B2, “Pyrimidine tricyclic enone derivatives for inhibition of ROR-gamma and other uses” (REATA PHARMACEUTICALS, INC., priority 2016, dated 2022) can be followed below.

The subject of assay [1] is Nrf2 transcription factor (GST ARE luciferase reporter in AREc32 cells). As to the kind of experiment: AREc32 luciferase reporter assay. Type of assay: cell-based, human. The following applies: EC2×: concentration required to increase GST ARE luciferase reporter activity by 2-fold, 19 hours. An outline of the steps:
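AREc32 cells (MCF-7 carrying luciferase under eight rat GSTA2 ARE copies) treated with compound; luciferase measured by ONE-Glo luminescence. Signal normalised to DMSO wells as fold-induction, fitted by variable-slope log(agonist)-response regression, with EC2× interpolated from the curve.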

Assay [2] has as its system IL-17A levels in primary human CD4+ T cells differentiated into Th17 cells. Kind of assay: IL-17 release from differentiated primary human T-cells (IL-17A HTRF). In kind it is cell-based. The following applies: primary human CD4+ T cells, Th17 differentiation, 46-hour incubation; read-out: hIL17 IC50. How it is done: C. IL-17 Release from Differentiated Primary Human T-Cells and Cell Viability Primary human cryopreserved CD4+ T Cells (Lonza, donor #0000402103) were plated in Lymphocyte Growth Medium-3 (LGM-3, Lonza) according to the manufacturer's recommendations, and allowed to recover for approximately 3 hours at 37° C. with 5% CO2 in a humidified atmosphere. […] Triplicate wells were plated for each test condition. DMSO (final concentration ≤0.1%) was used as the vehicle. Immediately after plating, CD4+ T cells were activated by adding Dynabeads Human T-Activator CD3/CD28 (Life Technologies; bead-to-cell ratio of 1:2.5) and differentiated into Th17 cells by adding a mixture of the following cytokines: transforming growth factor-β (TGF-β, 5 ng/mL), IL-6 (20 ng/mL), IL-23 (20 ng/mL), and […] (10 ng/mL). Undifferentiated control cells received only cytokine IL-2 (50 ng/mL). All human recombinant cytokines were purchased from R&D Systems. Following a 46-hour incubation at 37° C. with 5% CO2 in a humidified atmosphere, the plates were centrifuged for 3 minutes at 250×g, and half of the supernatant was transferred to a new plate to be used in the IL-17A assay (see below). Cell viability was assessed in the original plate using the CyQuant Direct Assay (Life Technologies). CyQuant values from test compound samples were normalized to those from DMSO-treated samples. The concentration of IL-17A in the supernatant was measured using the Homogeneous Time-Resolved Fluorescence (HTRF) assay (Cisbio Bioassays) according to the manufacturer's protocol. The assay was performed at room temperature in low volume, solid white 384-well plates (Greiner Bio-One). […] A non-linear regression analysis with log (inhibitor) vs. normalized response using a variable slope was applied to fit the data and determine the IC50 values for inhibition of IL-17A levels and cell viability.

`C[C@H]1C(=O)C(C#N)=C[C@@]2(C)c3nc(-c4ccnc5ccccc45)nc(-c4nccs4)c3CC[C@H]12` [T107]: the “HRF2 ARE 2×” value in assay [1] came to 284 nM. Further, the IC50 in assay [2] stood at 0.17 µM.

In the case of `Cc1cc(-c2nc(-c3cccc(F)c3)c3c(n2)[C@]2(C)C=C(C#N)C(=O)[C@H](C)[C@H]2CC3)c2ccccc2n1` [T108], the “HRF2 ARE 2×” value in assay [1] is 225 nM. For the same molecule, the IC50 in assay [2] was found to be 0.021 µM.

On to `Cc1cc(-c2nc(-c3ccc(F)cc3)c3c(n2)[C@]2(C)C=C(C#N)C(=O)[C@H](C)[C@H]2CC3)c2ccccc2n1` [T109], for which the “HRF2 ARE 2×” value in assay [1] is given as 251 nM. In assay [2], the IC50 worked out at 0.018 µM.

`Cc1cc(-c2nc(OC3CCC3)c3c(n2)[C@]2(C)C=C(C#N)C(=O)[C@H](C)[C@H]2CC3)c2ccccc2n1` [T110]: in assay [1], the “HRF2 ARE 2×” value amounted to 317 nM. The IC50 in assay [2] was 0.037 µM.

For the molecule `Cc1cc(-c2nc(OC3CCCC3)c3c(n2)[C@]2(C)C=C(C#N)C(=O)[C@H](C)[C@H]2CC3)c2ccccc2n1` [T111], the “HRF2 ARE 2×” value in assay [1] amounted to 317 nM. Further, in assay [2], the IC50 came out at 0.019 µM.

On to `C[C@H]1C(=O)C(C#N)=C[C@@]2(C)c3nc(-c4ncnc5ccccc45)nc(OC4CCC4)c3CC[C@H]12` [T112], for which the “HRF2 ARE 2×” value in assay [1] is recorded as 559 nM. In addition, the IC50 in assay [2] was 0.085 µM.

For the molecule `C[C@H]1C(=O)C(C#N)=C[C@@]2(C)c3nc(-c4ncnc5ccccc45)nc(-c4cccc(F)c4)c3CC[C@H]12` [T113], the “HRF2 ARE 2×” value in assay [1] is on record as 734 nM. Moreover, the IC50 in assay [2] is 0.048 µM.

In the case of `C[C@H]1C(=O)C(C#N)=C[C@@]2(C)c3nc(-c4ncnc5ccccc45)nc(-c4ccc(F)cc4)c3CC[C@H]12` [T114], the “HRF2 ARE 2×” value in assay [1] was determined as 484 nM. Further, in assay [2], the IC50 is 0.046 µM.

Turning to `C[C@H]1C(=O)C(C#N)=C[C@@]2(C)c3nc(-c4cc(CF)nc5ccccc45)nc(-c4ccccc4F)c3CC[C@H]12` [T115], in assay [1], the “HRF2 ARE 2×” value was 260 nM. The half-maximal inhibitory concentration (IC50) in assay [2] came to 0.014 µM.

Take `C[C@H]1C(=O)C(C#N)=C[C@@]2(C)c3nc(-c4cc(C=O)nc5ccccc45)nc(-c4ccccc4F)c3CC[C@H]12` [T116]: the “HRF2 ARE 2×” value in assay [1] amounted to 303 nM. In assay [2], the IC50 is 0.065 µM.

Regarding `CC(=O)OCc1cc(-c2nc(-c3ccccc3F)c3c(n2)[C@]2(C)C=C(C#N)C(=O)[C@H](C)[C@H]2CC3)c2ccccc2n1` [T117], the “HRF2 ARE 2×” value in assay [1] is listed as 232 nM. In addition, the IC50 in assay [2] amounted to 0.058 µM.

`Cc1cc(-c2nc(-c3ccccc3F)c3c(n2)[C@]2(C)C=C(C#N)C(=O)C(C)(C)[C@H]2CC3)c2ccccc2n1` [T119]: the “HRF2 ARE 2×” value in assay [1] stood at 351 nM. Besides, the 50% inhibitory concentration (IC50) in assay [2] turned out to be 0.037 µM.

With `C[C@H]1C(=O)C(C#N)=C[C@@]2(C)c3nc(-c4cc(CF)nc5ccccc45)nc(OC4CCCC4)c3CC[C@H]12` [T120], the “HRF2 ARE 2×” value in assay [1] is recorded as 334 nM. The IC50 in assay [2] was found to be 0.029 µM.

On to `C[C@H]1C(=O)C(C#N)=C[C@@]2(C)c3nc(-c4ccnc5c(F)cccc45)nc(OC4CCCC4)c3CC[C@H]12` [T121], for which, in assay [1], the “HRF2 ARE 2×” value amounted to 390 nM. For the same molecule, the IC50 in assay [2] is 0.036 µM.

Consider `CC1(C)C(=O)C(C#N)=C[C@@]2(C)c3nc(-c4cc(CF)nc5ccccc45)nc(-c4ccccc4F)c3CC[C@H]12` [T122], for which the “HRF2 ARE 2×” value in assay [1] came out at 402 nM. Further, the IC50 in assay [2] is 0.031 µM.

Turning to `CC(C)c1cc(-c2nc(-c3ccccc3F)c3c(n2)[C@]2(C)C=C(C#N)C(=O)[C@H](C)[C@H]2CC3)c2ccccc2n1` [T123], the “HRF2 ARE 2×” value in assay [1] is listed as 371 nM. For the same molecule, the IC50 in assay [2] came out at 0.02 µM.

In the case of `CCC[C@@]1(C)C(=O)C(C#N)=C[C@@]2(C)c3nc(-c4ccnc5ccccc45)nc(-c4ccccc4F)c3CC[C@H]12` [T124], in assay [1], the “HRF2 ARE 2×” value was determined as 220 nM. Moreover, the IC50 in assay [2] came out at 0.022 µM.

Regarding `CC1(C)C(=O)C(C#N)=C[C@@]2(C)c3nc(-c4ccnc(C5CC5)c4)nc(-c4ccccc4F)c3CC[C@H]12` [T125], the “HRF2 ARE 2×” value in assay [1] is recorded as 549 nM. The IC50 in assay [2] is 0.027 µM.

On to `CC[C@@]1(C)C(=O)C(C#N)=C[C@@]2(C)c3nc(-c4ccnc5ccccc45)nc(-c4ccccc4F)c3CC[C@H]12` [T126], for which the “HRF2 ARE 2×” value in assay [1] is 280 nM. Moreover, in assay [2], the IC50 is 0.036 µM.

For `CC1(C)C(=O)C(C#N)=C[C@@]2(C)c3nc(-c4ccnc5c(F)cccc45)nc(-c4ccccc4F)c3CC[C@H]12` [T127], the “HRF2 ARE 2×” value in assay [1] is 343 nM. Further, the IC50 in assay [2] stood at 0.036 µM.

As for `C[C@H]1C(=O)[C@@]2(C#N)O[C@H]2[C@@]2(C)c3nc(-c4ccnc5ccccc45)nc(-c4ccccc4F)c3CC[C@H]12` [T132], the “HRF2 ARE 2×” value in assay [1] is 437 nM. In addition, the IC50 in assay [2] is 0.074 µM.

`C[C@]1(CCCO)C(=O)C(C#N)=C[C@@]2(C)c3nc(-c4ccnc(C5CC5)c4)nc(-c4ccccc4F)c3CC[C@H]12` [T136]: the “HRF2 ARE 2×” value in assay [1] turned out to be 518 nM. Moreover, in assay [2], the IC50 amounted to 0.025 µM.

As for `CCC[C@@]1(C)C(=O)C(C#N)=C[C@@]2(C)c3nc(-c4ccnc(C5CC5)c4)nc(-c4ccccc4F)c3CC[C@H]12` [T137], the “HRF2 ARE 2×” value in assay [1] was 274 nM. Further, the IC50 in assay [2] was 0.009 µM.

Take `C[C@H]1C(=O)C(C#N)=C[C@@]2(C)c3nc(-c4ccnc5ccccc45)nc(N4CCCC4)c3CC[C@H]12` [T138]: the “HRF2 ARE 2×” value in assay [1] is 641 nM. Moreover, in assay [2], the IC50 worked out at 0.167 µM.

For the molecule `C[C@H]1C(=O)C(C#N)=C[C@@]2(C)c3nc(-c4ccc(C5CC5)nc4)nc(-c4ccccc4F)c3CC[C@H]12` [T140], in assay [1], the “HRF2 ARE 2×” value was 451 nM. Further, the IC50 in assay [2] is 0.026 µM.

Regarding `C[C@H]1C(=O)C(C#N)=C[C@@]2(C)c3nc(-c4ccc(-c5ccccc5)nc4)nc(-c4ccccc4F)c3CC[C@H]12` [T141], the “HRF2 ARE 2×” value in assay [1] is reported as 557 nM. Besides, in assay [2], the IC50 came out at 0.022 µM.

Regarding `C[C@H]1C(=O)C(C#N)=C[C@@]2(C)c3nc(-c4ccc(CCS(C)(=O)=O)nc4)nc(-c4ccccc4F)c3CC[C@H]12` [T142], the “HRF2 ARE 2×” value in assay [1] was 217 nM. Also, in assay [2], the IC50 stood at 0.077 µM.

On to `C[C@H]1C(=O)C(C#N)=C[C@@]2(C)c3nc(-c4ccnc(CS(C)(=O)=O)c4)nc(-c4ccccc4F)c3CC[C@H]12` [T143], for which the “HRF2 ARE 2×” value in assay [1] is given as 538 nM. Further, the IC50 in assay [2] stood at 0.094 µM.

As for `C[C@H]1C(=O)C(C#N)=C[C@@]2(C)c3nc(-c4ccnc(CCS(C)(=O)=O)c4)nc(-c4ccccc4F)c3CC[C@H]12` [T144], the “HRF2 ARE 2×” value in assay [1] worked out at 299 nM. Further, the IC50 in assay [2] is 0.072 µM.

For the molecule `C[C@H]1C(=O)C(C#N)=C[C@@]2(c3ccccc3)c3nc(-c4ccnc5ccccc45)nc(-c4ccccc4F)c3CC[C@H]12` [T148], the “HRF2 ARE 2×” value in assay [1] is given as 1758 nM. In assay [2], the IC50 was 0.077 µM.

For the molecule `CC1(C)C(=O)C(C#N)=C[C@@]2(C)c3nc(-c4cccc5ncccc45)nc(-c4ccccc4F)c3CC[C@H]12` [T149], the “HRF2 ARE 2×” value in assay [1] was determined as 330 nM. For the same molecule, the concentration for half-maximal inhibition (IC50) in assay [2] stood at 0.014 µM.

As for `CCOC(=O)CCc1cc(-c2nc(-c3ccccc3F)c3c(n2)[C@]2(C)C=C(C#N)C(=O)[C@H](C)[C@H]2CC3)ccn1` [T151], in assay [1], the “HRF2 ARE 2×” value turned out to be 1111 nM. Besides, the IC50 in assay [2] was determined as 0.054 µM.

`C[C@H]1C(=O)C(C#N)=C[C@@]2(C)c3nc(-c4ccnc(CCC(=O)N(C)C)c4)nc(-c4ccccc4F)c3CC[C@H]12` [T152]: in assay [1], the “HRF2 ARE 2×” value is 323 nM. In assay [2], the IC50 came to 0.046 µM.

As for `CCS(=O)(=O)CCc1cc(-c2nc(-c3ccccc3F)c3c(n2)[C@]2(C)C=C(C#N)C(=O)[C@H](C)[C@H]2CC3)ccn1` [T153], the “HRF2 ARE 2×” value in assay [1] stood at 282 nM. Also, the IC50 in assay [2] was 0.052 µM.
